{"source": "the supplement of paper PMC10307832", "data": [{"compound": "C1=CC2=NC=CN=C2C=C1/C=C/3\\C(=O)NC(=O)S3 + O=C(c1cc(Cc2n[nH]c(=O)c3ccccc23)ccc1F)N1CCN(C(=O)C2CC2)CC1 [Olaparib] (partner 8 µM)", "assay": "relative viability (nuclei count vs DMSO), 5 days (fraction); higher = more cells survive", "settings": "first compound 0.6325 µM", "method_in_brief": "(§1)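 Lung cancer cell lines were seeded in 1536-well plates and dosed by pin tool the next day, with either a single drug or a fixed anchor-drug dose combined with five library-drug doses (not always all listed) spaced in √10 steps. Five days later, one step fixed the cells and stained their nuclei (final 0.05% Triton X-100, 1% formaldehyde, 1 ug/ml Hoechst), and nuclei were counted on 4× images. Relative viability is the nuclei count in treated wells divided by the count in vehicle wells, and each value is the median of duplicate plates.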", "values": [{"cell line": "EMC-BAC-2", "relative viability": 0.489}, {"cell line": "NCI-H2085", "relative viability": 0.821}, {"cell line": "Calu-6", "relative viability": 0.592}, {"cell line": "HCC-366", "relative viability": 0.351}, {"cell line": "NCI-H1666", "relative viability": 0.695}, {"cell line": "NCI-H596", "relative viability": 0.726}, {"cell line": "LK-2", "relative viability": 0.702}, {"cell line": "NCI-H2087", "relative viability": 0.631}, {"cell line": "NCI-H2342", "relative viability": 0.415}, {"cell line": "SK-MES-1", "relative viability": 0.796}, {"cell line": "H3255", "relative viability": 0.594}, {"cell line": "COR-L23", "relative viability": 0.401}, {"cell line": "COR-L 105", "relative viability": 0.819}, {"cell line": "IA-LM", "relative viability": 0.836}, {"cell line": "LOU-NH91", "relative viability": 0.883}, {"cell line": "ChaGo-K-1", "relative viability": 0.412}, {"cell line": "NCI-H2170", "relative viability": 0.577}, {"cell line": "A549", "relative viability": 0.335}, {"cell line": "NCI-H2009", "relative viability": 0.739}, {"cell line": "NCI-H661", "relative viability": 0.746}, {"cell line": "SK-LU-1", "relative viability": 0.521}, {"cell line": "NCI-H1299", "relative viability": 0.928}, {"cell line": "CAL-12T", "relative viability": 0.779}, {"cell line": "NCI-H2228", "relative viability": 0.654}, {"cell line": "NCI-H2023", "relative viability": 0.492}]}, {"compound": "C1=CC2=NC=CN=C2C=C1/C=C/3\\C(=O)NC(=O)S3 + O=C(c1cc(Cc2n[nH]c(=O)c3ccccc23)ccc1F)N1CCN(C(=O)C2CC2)CC1 [Olaparib] (partner 8 µM)", "assay": "relative viability (nuclei count vs DMSO), 5 days (fraction); higher = more cells survive", "settings": "first compound 2 µM", "method_in_brief": "as §1", "values": [{"cell line": "NCI-H522", "relative viability": 0.545}, {"cell line": "NCI-H727", "relative viability": 0.538}, {"cell line": "NCI-H1650", "relative viability": 0.927}, {"cell line": "EBC-1", "relative viability": 0.723}, {"cell line": "NCI-H1703", "relative viability": 0.322}, {"cell line": "NCI-H1993", "relative viability": 0.182}, {"cell line": "SW 1573", "relative viability": 0.387}, {"cell line": "NCI-H838", "relative viability": 0.636}, {"cell line": "LCLC-103H", "relative viability": 0.729}, {"cell line": "NCI-H520", "relative viability": 0.345}, {"cell line": "NCI-H2126", "relative viability": 0.799}, {"cell line": "EMC-BAC-2", "relative viability": 0.39}, {"cell line": "NCI-H2085", "relative viability": 0.754}, {"cell line": "Calu-6", "relative viability": 0.568}, {"cell line": "HCC-366", "relative viability": 0.373}, {"cell line": "NCI-H1666", "relative viability": 0.728}, {"cell line": "NCI-H596", "relative viability": 0.729}, {"cell line": "LK-2", "relative viability": 0.348}, {"cell line": "NCI-H2087", "relative viability": 0.447}, {"cell line": "NCI-H2342", "relative viability": 0.373}, {"cell line": "SK-MES-1", "relative viability": 0.657}, {"cell line": "H3255", "relative viability": 0.517}, {"cell line": "COR-L23", "relative viability": 0.36}, {"cell line": "COR-L 105", "relative viability": 0.723}, {"cell line": "IA-LM", "relative viability": 0.871}, {"cell line": "LOU-NH91", "relative viability": 0.85}, {"cell line": "ChaGo-K-1", "relative viability": 0.412}, {"cell line": "NCI-H2170", "relative viability": 0.563}, {"cell line": "A549", "relative viability": 0.12}, {"cell line": "SW 900", "relative viability": 0.727}, {"cell line": "NCI-H1648", "relative viability": 0.563}, {"cell line": "NCI-H2009", "relative viability": 0.703}, {"cell line": "NCI-H661", "relative viability": 0.715}, {"cell line": "SK-LU-1", "relative viability": 0.465}, {"cell line": "NCI-H1299", "relative viability": 1.01}, {"cell line": "CAL-12T", "relative viability": 0.672}, {"cell line": "NCI-H2228", "relative viability": 0.649}, {"cell line": "NCI-H2023", "relative viability": 0.498}]}, {"compound": "CCN1CCN(c2ccc(Nc3cc(N(C)C(=O)Nc4c(Cl)c(OC)cc(OC)c4Cl)ncn3)cc2)CC1 [BGJ398] + CS(=O)(=O)N1CCN(Cc2cc3nc(-c4cccc5[nH]ncc45)nc(N4CCOCC4)c3s2)CC1 [Pictilisib] (partner 1 µM)", "assay": "relative viability (nuclei count vs DMSO), 5 days (fraction); higher = more cells survive", "settings": "first compound 0.01 µM", "method_in_brief": "as §1", "values": [{"cell line": "NCI-H727", "relative viability": 0.455}, {"cell line": "NCI-H1650", "relative viability": 0.497}, {"cell line": "EBC-1", "relative viability": 0.41}, {"cell line": "NCI-H1703", "relative viability": 0.233}, {"cell line": "NCI-H1993", "relative viability": 0.744}, {"cell line": "SW 1573", "relative viability": 0.485}, {"cell line": "NCI-H838", "relative viability": 0.436}, {"cell line": "LCLC-103H", "relative viability": 0.652}, {"cell line": "NCI-H520", "relative viability": 0.239}, {"cell line": "NCI-H2126", "relative viability": 0.528}, {"cell line": "EMC-BAC-2", "relative viability": 0.503}, {"cell line": "NCI-H2085", "relative viability": 0.456}, {"cell line": "Calu-6", "relative viability": 0.848}, {"cell line": "HCC-366", "relative viability": 0.0862}, {"cell line": "NCI-H1666", "relative viability": 0.511}]}]}
